{
  "source": "paper PMC11233931",
  "about": "“Remodeling tumor‐associated macrophage for anti‐cancer effects by rational design of irreversible inhibition of mitogen‐activated protein kinase‐activated protein kinase 2” (MedComm, 2024)",
  "test_in_all_cases": "Eurofins kinase selectivity profile against 380 other human recombinant kinases (Table S2)",
  "format_in_all_cases": "biochemical",
  "key": {"[1]": {"molecular_target": "T1, 380 human recombinant protein kinases (Homo sapiens, UniProt P15056, V600E)", "T1 construct": "purchased Eurofins (Celle Lévescault)", "T1 sequence (P15056 whole entry V600E)": "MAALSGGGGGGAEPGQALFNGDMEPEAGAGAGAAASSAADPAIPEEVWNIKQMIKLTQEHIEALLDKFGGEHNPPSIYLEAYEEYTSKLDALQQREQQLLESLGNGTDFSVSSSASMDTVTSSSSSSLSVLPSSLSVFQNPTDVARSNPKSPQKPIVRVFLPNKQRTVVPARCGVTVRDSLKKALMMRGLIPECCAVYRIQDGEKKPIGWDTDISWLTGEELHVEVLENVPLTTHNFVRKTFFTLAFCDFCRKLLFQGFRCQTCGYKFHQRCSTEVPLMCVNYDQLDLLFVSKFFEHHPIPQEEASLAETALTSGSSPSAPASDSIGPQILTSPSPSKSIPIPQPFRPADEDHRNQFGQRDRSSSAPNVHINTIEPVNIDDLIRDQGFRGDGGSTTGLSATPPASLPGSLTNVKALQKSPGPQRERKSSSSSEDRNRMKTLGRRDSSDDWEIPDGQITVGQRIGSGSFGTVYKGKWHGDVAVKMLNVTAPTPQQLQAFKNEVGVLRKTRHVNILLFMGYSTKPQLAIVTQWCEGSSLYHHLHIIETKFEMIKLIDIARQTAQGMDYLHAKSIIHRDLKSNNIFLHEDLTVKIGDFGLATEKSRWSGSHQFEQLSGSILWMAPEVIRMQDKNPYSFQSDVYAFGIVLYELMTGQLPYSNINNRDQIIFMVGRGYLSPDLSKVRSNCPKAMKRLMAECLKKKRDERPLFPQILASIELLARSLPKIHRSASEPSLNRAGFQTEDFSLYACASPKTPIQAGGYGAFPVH", "settings": "B-Raf(V599E)(h), read-out: Inhibition rate", "method_in_brief": "(§1)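 To gauge specificity for MK2, the compound is profiled externally at various concentrations on recombinant human kinases, 380 in total.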"}, "[2]": {"molecular_target": "T2, 380 human recombinant protein kinases (Homo sapiens, UniProt P24723)", "T2 construct": "purchased Eurofins (Celle Lévescault)", "T2 sequence (P24723 whole entry)": "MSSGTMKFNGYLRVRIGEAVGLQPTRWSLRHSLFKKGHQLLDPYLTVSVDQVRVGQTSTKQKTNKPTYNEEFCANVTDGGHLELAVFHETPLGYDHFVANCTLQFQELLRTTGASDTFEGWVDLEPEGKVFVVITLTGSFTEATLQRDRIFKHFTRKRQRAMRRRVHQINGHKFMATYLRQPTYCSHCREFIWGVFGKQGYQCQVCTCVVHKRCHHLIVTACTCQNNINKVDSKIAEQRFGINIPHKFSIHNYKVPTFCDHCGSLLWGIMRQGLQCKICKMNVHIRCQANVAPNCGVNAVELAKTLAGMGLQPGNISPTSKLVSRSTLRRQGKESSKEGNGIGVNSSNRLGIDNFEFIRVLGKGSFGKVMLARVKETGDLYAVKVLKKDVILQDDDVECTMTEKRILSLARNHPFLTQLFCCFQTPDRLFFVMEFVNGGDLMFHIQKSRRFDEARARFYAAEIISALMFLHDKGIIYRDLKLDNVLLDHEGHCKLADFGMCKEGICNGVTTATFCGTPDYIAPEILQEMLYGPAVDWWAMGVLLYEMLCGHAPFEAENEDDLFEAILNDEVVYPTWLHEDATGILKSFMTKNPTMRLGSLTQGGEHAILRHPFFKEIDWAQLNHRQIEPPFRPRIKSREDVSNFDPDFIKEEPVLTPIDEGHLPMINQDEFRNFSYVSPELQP", "settings": "PKCη(h), read-out: Inhibition rate", "method_in_brief": "as §1"}, "[3]": {"molecular_target": "T3, 380 human recombinant protein kinases (Homo sapiens, UniProt P54760)", "T3 construct": "purchased Eurofins (Celle Lévescault)", "T3 sequence (P54760 16-987)": "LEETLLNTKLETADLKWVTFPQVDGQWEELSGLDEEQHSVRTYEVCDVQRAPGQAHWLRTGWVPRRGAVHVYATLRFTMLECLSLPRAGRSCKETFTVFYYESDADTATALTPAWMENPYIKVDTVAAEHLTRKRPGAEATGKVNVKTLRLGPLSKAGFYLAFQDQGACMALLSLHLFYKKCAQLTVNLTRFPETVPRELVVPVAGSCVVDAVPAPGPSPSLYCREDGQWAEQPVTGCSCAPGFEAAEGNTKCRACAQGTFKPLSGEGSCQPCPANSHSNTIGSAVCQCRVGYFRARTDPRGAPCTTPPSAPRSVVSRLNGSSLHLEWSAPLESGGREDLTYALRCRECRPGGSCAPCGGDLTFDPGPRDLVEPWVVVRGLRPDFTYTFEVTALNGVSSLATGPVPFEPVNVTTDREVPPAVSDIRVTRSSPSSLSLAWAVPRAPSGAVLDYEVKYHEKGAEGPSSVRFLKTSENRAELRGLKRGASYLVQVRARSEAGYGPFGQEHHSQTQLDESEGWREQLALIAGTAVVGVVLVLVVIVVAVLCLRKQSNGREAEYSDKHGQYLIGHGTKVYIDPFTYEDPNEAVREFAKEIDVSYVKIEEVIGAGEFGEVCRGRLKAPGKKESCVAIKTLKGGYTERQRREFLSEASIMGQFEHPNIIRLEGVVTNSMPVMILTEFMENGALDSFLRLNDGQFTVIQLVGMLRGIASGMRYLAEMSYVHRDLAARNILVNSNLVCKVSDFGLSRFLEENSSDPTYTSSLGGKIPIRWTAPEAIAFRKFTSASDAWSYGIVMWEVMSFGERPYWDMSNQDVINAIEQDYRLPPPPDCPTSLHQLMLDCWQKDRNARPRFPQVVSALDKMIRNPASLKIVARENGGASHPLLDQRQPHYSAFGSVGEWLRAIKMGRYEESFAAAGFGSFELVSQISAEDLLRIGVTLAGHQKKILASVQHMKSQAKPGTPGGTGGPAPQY", "settings": "EphB4(h), read-out: Inhibition rate", "method_in_brief": "as §1"}, "[4]": {"molecular_target": "T4, 380 human recombinant protein kinases (Homo sapiens, UniProt P57059)", "T4 construct": "purchased Eurofins (Celle Lévescault)", "T4 sequence (P57059 whole entry)": "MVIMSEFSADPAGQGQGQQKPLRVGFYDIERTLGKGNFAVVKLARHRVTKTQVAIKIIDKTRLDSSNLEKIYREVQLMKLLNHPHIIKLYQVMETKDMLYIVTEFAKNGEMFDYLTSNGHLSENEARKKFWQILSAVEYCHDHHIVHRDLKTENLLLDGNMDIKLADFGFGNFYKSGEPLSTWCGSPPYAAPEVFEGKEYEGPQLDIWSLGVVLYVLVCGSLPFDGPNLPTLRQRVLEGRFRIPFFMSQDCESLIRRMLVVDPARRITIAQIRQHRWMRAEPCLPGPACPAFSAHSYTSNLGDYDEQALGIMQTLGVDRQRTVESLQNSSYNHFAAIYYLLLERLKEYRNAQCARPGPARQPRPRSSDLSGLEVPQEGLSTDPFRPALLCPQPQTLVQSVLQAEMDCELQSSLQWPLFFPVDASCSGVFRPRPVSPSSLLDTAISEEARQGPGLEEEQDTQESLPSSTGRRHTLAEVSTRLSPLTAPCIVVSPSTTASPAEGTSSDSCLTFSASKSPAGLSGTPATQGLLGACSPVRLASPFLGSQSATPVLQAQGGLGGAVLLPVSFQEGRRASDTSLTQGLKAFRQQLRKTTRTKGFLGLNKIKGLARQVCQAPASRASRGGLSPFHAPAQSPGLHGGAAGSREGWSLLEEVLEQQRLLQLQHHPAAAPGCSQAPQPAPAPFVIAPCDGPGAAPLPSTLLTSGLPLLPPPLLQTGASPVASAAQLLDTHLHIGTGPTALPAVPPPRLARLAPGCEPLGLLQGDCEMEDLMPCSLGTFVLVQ", "settings": "SIK(h), read-out: Inhibition rate (%)", "method_in_brief": "as §1"}, "[5]": {"molecular_target": "T5, 380 human recombinant protein kinases (Homo sapiens, UniProt Q8TF76)", "T5 construct": "purchased Eurofins (Celle Lévescault)", "T5 sequence (Q8TF76 1-798)": "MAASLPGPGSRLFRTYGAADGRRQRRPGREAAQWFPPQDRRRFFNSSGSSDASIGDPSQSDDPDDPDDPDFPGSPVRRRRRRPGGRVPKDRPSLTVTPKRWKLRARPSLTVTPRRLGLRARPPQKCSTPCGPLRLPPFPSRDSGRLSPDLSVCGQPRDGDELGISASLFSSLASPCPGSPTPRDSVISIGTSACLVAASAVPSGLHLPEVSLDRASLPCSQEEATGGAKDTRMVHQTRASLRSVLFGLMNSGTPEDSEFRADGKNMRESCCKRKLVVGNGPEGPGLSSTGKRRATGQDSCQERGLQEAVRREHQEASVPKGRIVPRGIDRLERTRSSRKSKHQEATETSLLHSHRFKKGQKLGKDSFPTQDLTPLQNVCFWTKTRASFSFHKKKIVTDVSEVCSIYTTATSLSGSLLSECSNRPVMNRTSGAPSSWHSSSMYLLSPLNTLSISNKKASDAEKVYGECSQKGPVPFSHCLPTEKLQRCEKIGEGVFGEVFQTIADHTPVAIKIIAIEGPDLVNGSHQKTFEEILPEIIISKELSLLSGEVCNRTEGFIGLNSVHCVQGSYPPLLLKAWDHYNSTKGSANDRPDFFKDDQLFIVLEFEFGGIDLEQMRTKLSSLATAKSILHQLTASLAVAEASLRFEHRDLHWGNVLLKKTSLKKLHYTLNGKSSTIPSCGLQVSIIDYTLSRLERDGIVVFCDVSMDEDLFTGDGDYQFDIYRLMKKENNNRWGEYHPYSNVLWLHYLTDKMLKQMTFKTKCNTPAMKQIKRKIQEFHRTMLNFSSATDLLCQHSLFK", "settings": "Haspin(h), read-out: Inhibition rate", "method_in_brief": "as §1"}},
  "data": [
    {"smiles": "C=CC(=O)Nc1cc(-c2cc(-c3cc4c([nH]3)CCNC4=O)ccn2)ccc1OC(F)(F)F", "note": "[compound 11]", "values": [
      {"measurement": "inhibition at 0.01 µM", "setting": "[1]; 10 nM", "value": -6, "unit": "%"},
      {"measurement": "inhibition at 0.1 µM", "setting": "[1]; 100 nM", "value": -14, "unit": "%"},
      {"measurement": "inhibition at 1 µM", "setting": "[1]; 1000 nM", "value": -2, "unit": "%"},
      {"measurement": "inhibition at 0.01 µM", "setting": "[2]; 10 nM", "value": 1, "unit": "%"},
      {"measurement": "inhibition at 0.1 µM", "setting": "[2]; 100 nM", "value": 10, "unit": "%"},
      {"measurement": "inhibition at 1 µM", "setting": "[2]; 1000 nM", "value": 9, "unit": "%"},
      {"measurement": "inhibition at 0.01 µM", "setting": "[3]; 10 nM", "value": -4, "unit": "%"},
      {"measurement": "inhibition at 0.1 µM", "setting": "[3]; 100 nM", "value": -15, "unit": "%"},
      {"measurement": "inhibition at 1 µM", "setting": "[3]; 1000 nM", "value": -4, "unit": "%"},
      {"measurement": "inhibition at 0.01 µM", "setting": "[4]; 10 nM", "value": 2, "unit": "%"},
      {"measurement": "inhibition at 0.1 µM", "setting": "[4]; 100 nM", "value": 4, "unit": "%"},
      {"measurement": "inhibition at 1 µM", "setting": "[4]; 1000 nM", "value": -3, "unit": "%"},
      {"measurement": "inhibition at 0.01 µM", "setting": "[5]; 10 nM", "value": 1, "unit": "%"},
      {"measurement": "inhibition at 0.1 µM", "setting": "[5]; 100 nM", "value": 11, "unit": "%"},
      {"measurement": "inhibition at 1 µM", "setting": "[5]; 1000 nM", "value": 46, "unit": "%"}
    ]}
  ]
}
